Source: article PMC7576608, “Mechanisms of telomerase inhibition by oxidized and therapeutic dNTPs” (Nature Communications, 2020)
Where “and” joins values, the source holds several entries; their conditions need not be identical. Equal entries are not always repeated. Where two headings read alike, the source gives them in different places.

Molecular target: telomerase (Homo sapiens, UniProt O14746)
Experiment: Telomerase repeat processivity IC50: modified dNTP titrated into reactions with all four natural dNTPs
Format: biochemical
Set-up: made in house; anti-FLAG immunopurification, eluted with 3xFLAG peptide
Conditions: for YIntercept (line fit of ln(100-%LB) vs # telomere repeats) / ln(100-%LB): n1-n3
Summary of the method: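 Immunopurified human telomerase reactions with cellular-relevant levels of all four natural dNTPs plus modified dNTP titrated 0–10,000 μM, 1 h at 37 °C; products resolved on denaturing gels and phosphorimaged. Repeat processivity R1/2 = −ln(2)/slope of ln(100−%LB) vs repeat number; IC50 is concentration halving bulk repeat processivity.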

[1] = cellular relevant natural dNTPs, modified dNTP titrated 0 to 10,000 μM, based on repeat processivity, mean ± SD, read-out: Telomerase processivity IC50
[2] = fit of R 1/2 vs log(concentration), 8-oxo-dGTP, replicates N1-N4
[3] = log of processivity IC50 (concentration in μM), Supplementary Fig 8b, read-out: Log IC50 (converted)
[4] = dose-response fit of processivity R 1/2, individual replicates
[5] = dose-response fit of processivity R 1/2 vs log(concentration), individual replicates

Chain of telomerase (O14746 whole entry): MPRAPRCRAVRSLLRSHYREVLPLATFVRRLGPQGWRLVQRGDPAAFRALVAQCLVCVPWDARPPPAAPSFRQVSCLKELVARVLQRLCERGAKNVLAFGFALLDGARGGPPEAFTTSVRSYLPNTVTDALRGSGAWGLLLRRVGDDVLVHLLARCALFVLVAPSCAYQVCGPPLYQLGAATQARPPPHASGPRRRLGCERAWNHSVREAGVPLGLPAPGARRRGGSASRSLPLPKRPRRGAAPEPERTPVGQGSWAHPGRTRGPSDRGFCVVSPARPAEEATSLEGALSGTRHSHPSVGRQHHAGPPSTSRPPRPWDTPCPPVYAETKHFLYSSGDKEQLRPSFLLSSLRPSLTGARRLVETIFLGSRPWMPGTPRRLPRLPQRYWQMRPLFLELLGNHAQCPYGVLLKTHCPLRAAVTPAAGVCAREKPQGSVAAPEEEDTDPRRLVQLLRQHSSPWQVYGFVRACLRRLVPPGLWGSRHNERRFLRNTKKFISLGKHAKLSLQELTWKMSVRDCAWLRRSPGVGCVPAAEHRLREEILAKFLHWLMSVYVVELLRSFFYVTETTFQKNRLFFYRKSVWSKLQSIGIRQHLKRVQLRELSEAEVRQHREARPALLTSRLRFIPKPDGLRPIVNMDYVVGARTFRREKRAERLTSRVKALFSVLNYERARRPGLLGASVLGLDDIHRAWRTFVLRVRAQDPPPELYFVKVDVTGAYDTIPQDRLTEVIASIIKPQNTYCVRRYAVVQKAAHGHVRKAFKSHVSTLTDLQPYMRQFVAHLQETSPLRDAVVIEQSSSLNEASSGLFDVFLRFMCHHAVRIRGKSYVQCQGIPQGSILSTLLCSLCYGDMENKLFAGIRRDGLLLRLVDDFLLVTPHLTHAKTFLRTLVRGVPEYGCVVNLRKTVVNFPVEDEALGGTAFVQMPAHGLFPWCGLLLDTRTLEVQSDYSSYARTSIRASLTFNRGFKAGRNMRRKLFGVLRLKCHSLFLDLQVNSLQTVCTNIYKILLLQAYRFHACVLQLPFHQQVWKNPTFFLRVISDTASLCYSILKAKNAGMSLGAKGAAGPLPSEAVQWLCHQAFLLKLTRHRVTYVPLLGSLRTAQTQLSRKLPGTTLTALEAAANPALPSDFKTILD

SMILES: Nc1nc2c([nH]c(=O)n2C2CC(O)C(COP(=O)(O)OP(=O)(O)OP(=O)(O)O)O2)c(=O)[nH]1 (centres unmarked) [8-oxo-dGTP]
- Processivity R 1/2 (8-oxo-dGTP 156.25 μM, replicates n1-n4): 3.18 and 2.53 and 3.23
- YIntercept (line fit of ln(100-%LB) vs # telomere repeats) (8-oxo-dGTP 160μM): 3.28 and 3.52 and 3.30
- ln(100-%LB) (8-oxo-dGTP 160μM, telomere repeat 1): 3.67 and 3.81 and 3.65
- ln(100-%LB) (8-oxo-dGTP 160μM, telomere repeat 2): 3.11 and 3.28 and 3.14
- ln(100-%LB) (8-oxo-dGTP 160μM, telomere repeat 3): 2.62 and 2.68 and 2.65
- ln(100-%LB) (8-oxo-dGTP 160μM, telomere repeat 4): 2.38 and 2.37 and 2.44
- ln(100-%LB) (8-oxo-dGTP 160μM, telomere repeat 5): 2.10 and 2.03 and 2.19
- ln(100-%LB) (8-oxo-dGTP 160μM, telomere repeat 6): 1.76 and 1.70 and 1.93
- ln(100-%LB) (8-oxo-dGTP 160μM, telomere repeat 7): 1.44 and 1.37 and 1.64
- ln(100-%LB) (8-oxo-dGTP 160μM, telomere repeat 8): 1.22 and 1.14 and 1.43
- ln(100-%LB) (8-oxo-dGTP 160μM, telomere repeat 9): 0.99 and 0.88 and 1.23
- ln(100-%LB) (8-oxo-dGTP 160μM, telomere repeat 10): 0.74 and 0.58 and 1.00
- YIntercept (line fit of ln(100-%LB) vs # telomere repeats) (8-oxo-dGTP 625μM): 3.24 and 3.54 and 3.75
- Processivity R 1/2 (8-oxo-dGTP 625 μM, replicates n1-n4): 2.67 and 2.52 and 3.04
- ln(100-%LB) (8-oxo-dGTP 625μM, telomere repeat 1): 3.67 and 3.79 and 3.89
- ln(100-%LB) (8-oxo-dGTP 625μM, telomere repeat 2): 3.11 and 3.31 and 3.40
- ln(100-%LB) (8-oxo-dGTP 625μM, telomere repeat 3): 2.62 and 2.84 and 2.91
- ln(100-%LB) (8-oxo-dGTP 625μM, telomere repeat 4): 2.38 and 2.60 and 2.62
- ln(100-%LB) (8-oxo-dGTP 625μM, telomere repeat 5): 2.10 and 2.36 and 2.34
- ln(100-%LB) (8-oxo-dGTP 625μM, telomere repeat 6): 1.76 and 2.09 and 2.01
- ln(100-%LB) (8-oxo-dGTP 625μM, telomere repeat 7): 1.44 and 1.77 and 1.66
- ln(100-%LB) (8-oxo-dGTP 625μM, telomere repeat 8): 1.22 and 1.56 and 1.41
- ln(100-%LB) (8-oxo-dGTP 625μM, telomere repeat 9): 0.99 and 1.31 and 1.14
- ln(100-%LB) (8-oxo-dGTP 625μM, telomere repeat 10): 0.74 and 1.05 and 0.85
- ln(100-%LB) (8-oxo-dGTP 625μM, telomere repeat 11): 0.51 and 0.79 and 0.55
- ln(100-%LB) (8-oxo-dGTP 625μM, telomere repeat 12): 0.32 and 0.58 and 0.29
- YIntercept (line fit of ln(100-%LB) vs # telomere repeats) (8-oxo-dGTP 2500μM): 4.49 and 4.30 and 4.68
- Processivity R 1/2 (8-oxo-dGTP 2500 μM, replicates n1-n4): 0.72 and 0.43 (2×) and 0.55
- ln(100-%LB) (8-oxo-dGTP 2500μM, telomere repeat 1): 3.44 and 3.70 and 3.07
- Processivity R 1/2 (8-oxo-dGTP 5000 μM, replicates n1-n4): 0
- Processivity R 1/2 (8-oxo-dGTP 10000 μM, replicates n1-n4): 0
- IC50 [1]: 1690 ± 172 µM
- LogIC50 (fit of R 1/2 vs log(concentration μM), 8-oxo-dGTP, replicates N1-N4): 3.24 and 3.27 and 3.16 and 3.23
- Bottom (best-fit value) [2]: 0.33 and -0.00509 and -0.0042 and -0.0316
- HillSlope [2]: -4.72 and -6.07 and -3.06 and -3.86
- Span (best-fit value) [2]: 2.87 and 3.02 and 2.71 and 3.30
- Top (best-fit value) [2]: 3.21 and 3.01 and 2.70 and 3.27
- IC50 [3]: 2000 µM
- IC50 (repeat processivity R 1/2, 8-oxo-dGTP, single replicates N1-N4, read-out: IC50): 1740 µM and 1870 µM and 1460 µM and 1690 µM

SMILES: Cc1cn([C@H]2C[C@H](N=[N+]=[N-])[C@@H](CO[P@](=O)(O)O[P@](=O)(O)OP(=O)(O)O)O2)c(=O)[nH]c1=O [AZT-TP]
- IC50 [1]: 402 ± 169 µM
- Best-fit values HillSlope [4]: -0.83 and -0.51
- Best-fit values Span [4]: 2.37 and 4.19
- Best-fit values LogIC50 (dose-response fit of processivity R 1/2, log of concentration in μM, individual replicates): 2.72 and 2.45
- Best-fit values Bottom [5]: -0.33 and -0.59
- Best-fit values Top [5]: 2.04 and 3.59
- IC50 [3]: 501 µM
- Processivity R 1/2 (modified dNTP concentration 31.25 μM, individual replicates n1-n3): 1.70 and 1.35
- Processivity R 1/2 (modified dNTP concentration 500 μM, individual replicates): 0.80 and 0.64
- Processivity R 1/2 (modified dNTP concentration 1000 μM, individual replicates): 0.57 and 0.61
- Processivity R 1/2 (modified dNTP concentration 2000 μM, individual replicates): 0.00 and 0.49
- Processivity R 1/2 (modified dNTP concentration 4000 μM, individual replicates): 0.00
- IC50 (repeat processivity R 1/2, individual replicates N1-N3, read-out: Best-fit values IC50): 521 µM and 282 µM
- IC50 (repeat processivity R 1/2, mean of replicates, read-out: Mean IC50): 402 µM
